# Test results published in US20200392158A1, “INHIBITORS OF LEUCINE RICH REPEAT KINASE 2” (GLAXOSMITHKLINE INTELLECTUAL PROPERTY DEVELOPMENT LIMITED, priority 2017, published 2020).
# Molecular target: T1, full length G2019 human LRRK2 (Homo sapiens, UniProt Q5S007, R50H)
# T1 construct: made in house; host or cells: HEK293 6E cells transduced with BacMam virus (virus generated in Sf9 cells)
# Assay: Full length G2019 human LRRK2 inhibition mass spectrometry assay
# Assay type: biochemical
# Conditions: LRRKtide to phospho-LRRKtide conversion, RapidFire MS, 2 mM ATP
# Procedure, shortened: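 Purified full-length Flag-tagged G2019 LRRK2, ~25 nM, with 25 μM LRRKtide and 2 mM ATP in 50 mM Hepes pH 7.2, 10 mM MgCl2, 150 mM NaCl, 1 h at room temperature. Quenched with formic acid; phospho- and unphosphorylated LRRKtide measured by RapidFire MS. pIC50 from 4-parameter fit of % conversion, 11 points, top 100 μM.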
# T1 sequence (Q5S007 with tags, fused parts or gaps R50H): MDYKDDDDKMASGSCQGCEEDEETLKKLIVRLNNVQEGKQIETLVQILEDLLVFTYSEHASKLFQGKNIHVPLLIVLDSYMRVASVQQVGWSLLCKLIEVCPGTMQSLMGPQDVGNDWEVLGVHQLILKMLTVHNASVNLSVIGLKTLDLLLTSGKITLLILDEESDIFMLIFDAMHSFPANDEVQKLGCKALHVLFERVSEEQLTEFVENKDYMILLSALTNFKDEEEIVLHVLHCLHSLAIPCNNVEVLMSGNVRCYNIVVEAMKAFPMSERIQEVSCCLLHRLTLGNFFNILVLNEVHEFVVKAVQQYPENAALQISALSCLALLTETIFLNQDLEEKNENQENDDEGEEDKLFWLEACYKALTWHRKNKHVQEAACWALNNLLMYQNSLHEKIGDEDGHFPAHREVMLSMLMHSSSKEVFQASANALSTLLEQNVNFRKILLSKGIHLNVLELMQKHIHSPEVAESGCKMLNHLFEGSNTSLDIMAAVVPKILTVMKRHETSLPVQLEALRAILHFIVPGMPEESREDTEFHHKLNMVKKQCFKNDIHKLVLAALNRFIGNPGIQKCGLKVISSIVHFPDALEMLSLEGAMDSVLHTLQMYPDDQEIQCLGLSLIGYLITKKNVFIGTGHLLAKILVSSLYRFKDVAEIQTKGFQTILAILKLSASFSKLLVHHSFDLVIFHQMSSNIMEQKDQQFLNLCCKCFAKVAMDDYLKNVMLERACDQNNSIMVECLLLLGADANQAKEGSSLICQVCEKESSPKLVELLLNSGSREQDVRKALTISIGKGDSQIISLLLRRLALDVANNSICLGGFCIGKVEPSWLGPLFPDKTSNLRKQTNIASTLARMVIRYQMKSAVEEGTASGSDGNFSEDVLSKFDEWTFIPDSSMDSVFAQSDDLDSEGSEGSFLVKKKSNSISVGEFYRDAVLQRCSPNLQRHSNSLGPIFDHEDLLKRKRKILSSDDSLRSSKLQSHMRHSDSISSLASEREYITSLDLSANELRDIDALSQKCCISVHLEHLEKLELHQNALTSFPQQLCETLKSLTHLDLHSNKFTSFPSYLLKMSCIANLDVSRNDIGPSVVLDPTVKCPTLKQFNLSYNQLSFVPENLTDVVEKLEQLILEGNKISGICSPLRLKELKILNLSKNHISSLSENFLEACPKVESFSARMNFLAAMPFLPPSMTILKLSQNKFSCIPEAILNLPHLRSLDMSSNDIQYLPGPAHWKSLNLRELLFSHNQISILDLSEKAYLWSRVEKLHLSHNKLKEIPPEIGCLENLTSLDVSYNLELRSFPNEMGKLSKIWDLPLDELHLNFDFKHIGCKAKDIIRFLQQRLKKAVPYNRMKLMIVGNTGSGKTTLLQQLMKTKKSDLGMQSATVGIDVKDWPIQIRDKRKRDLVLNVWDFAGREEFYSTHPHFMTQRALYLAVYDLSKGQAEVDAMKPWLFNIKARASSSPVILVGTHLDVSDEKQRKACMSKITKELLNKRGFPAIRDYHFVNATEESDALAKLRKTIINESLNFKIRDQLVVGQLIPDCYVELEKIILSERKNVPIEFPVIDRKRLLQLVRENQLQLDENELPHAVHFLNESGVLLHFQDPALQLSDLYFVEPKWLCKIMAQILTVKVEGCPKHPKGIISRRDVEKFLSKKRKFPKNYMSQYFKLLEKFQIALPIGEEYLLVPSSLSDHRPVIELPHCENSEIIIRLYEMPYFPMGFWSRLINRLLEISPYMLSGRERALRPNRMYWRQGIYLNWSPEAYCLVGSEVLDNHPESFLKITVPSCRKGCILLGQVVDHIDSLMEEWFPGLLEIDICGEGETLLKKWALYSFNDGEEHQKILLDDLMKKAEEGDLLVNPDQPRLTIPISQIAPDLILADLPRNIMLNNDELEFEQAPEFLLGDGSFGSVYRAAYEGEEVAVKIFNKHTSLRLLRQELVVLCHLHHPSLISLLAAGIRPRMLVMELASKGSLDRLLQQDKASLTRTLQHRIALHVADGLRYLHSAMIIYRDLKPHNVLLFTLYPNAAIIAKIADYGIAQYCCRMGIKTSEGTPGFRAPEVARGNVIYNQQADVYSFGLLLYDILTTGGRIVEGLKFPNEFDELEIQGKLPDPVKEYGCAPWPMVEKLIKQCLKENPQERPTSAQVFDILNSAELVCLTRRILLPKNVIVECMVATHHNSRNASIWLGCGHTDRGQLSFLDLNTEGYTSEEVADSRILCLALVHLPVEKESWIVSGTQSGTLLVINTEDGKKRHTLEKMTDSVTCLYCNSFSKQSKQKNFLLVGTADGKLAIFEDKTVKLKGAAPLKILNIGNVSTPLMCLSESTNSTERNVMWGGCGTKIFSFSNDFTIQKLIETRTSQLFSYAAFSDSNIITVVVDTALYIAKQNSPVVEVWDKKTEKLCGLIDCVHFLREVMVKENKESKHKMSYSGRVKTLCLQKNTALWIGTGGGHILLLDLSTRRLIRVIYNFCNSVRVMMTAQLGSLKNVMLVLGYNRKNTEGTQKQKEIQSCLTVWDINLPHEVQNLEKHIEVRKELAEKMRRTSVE
row,Structure (SMILES),IC50 [µM]
1,"Cc1c2c(nn1C1CC(C)OC(C)C1)OCCC(C)Nc1nc(ncc1Cl)N2 (single isomer, unassigned) [E195, 14-Chloro-5-(2,6-dimethyloxan-4-yl)-4,11-dimethyl-8-oxa-2,5,6,12,16,17-hexaazatricyclo[11.3.1.0^3,7] heptadeca-1(16),3,6,13(17),14-pentaene]",≤ 0.1
2,"COC1CNc2nc(ncc2Cl)Nc2c(nn(CC3(C)COC3)c2C)OC1 (single isomer, unassigned) [E273, 14-Chloro-10-methoxy-4-methyl-5-[(3-methyloxetan-3-yl)methyl]-8-oxa-2,5,6,12,16,17-hexaazatricyclo [11.3.1.0^3,7]heptadeca-1(16),3,6,13(17),14-pentaene]",≤ 10
3,"COC1CNc2nc(ncc2Cl)Nc2c(nn(C3CCC(C(F)(F)F)CC3)c2C)OC1 (single isomer, unassigned) [E279, 14-Chloro-10-methoxy-4-methyl-5-[4-(trifluoromethyl)cyclohexyl]-8-oxa-2,5,6,12,16,17-hexaazatricyclo [11.3. 1.0^3,7]heptadeca-1(16),3,6,13(17),14-pentaene]",≤ 10
4,"COC1CNc2nc(ncc2C(F)(F)F)Nc2c(nn(C3CCOCC3)c2C)OC1 (single isomer, unassigned) [E120, 10-methoxy-4-methyl-5-(oxan-4-yl)-14-(trifluoromethyl)-8-oxa-2,5,6,12,16,17-hexaazatricyclo[11.3.1.0^3,7] heptadeca-1(16),3,6,13(17),14-pentaene]",≤ 10
5,"Cc1c2c(nn1C1CCC(N3C[C@H]4C[C@@H]3CO4)CC1)OCCCNc1nc(ncc1Cl)N2 (single isomer, unassigned) [E49]",≤ 0.1
6,"FC(F)(F)c1c2c(nn1C1CCOCC1)OCCCNc1nc(ncc1Cl)N2 [E424, 14-Chloro-5-(oxan-4-yl)-4-(trifluoromethyl)-8-oxa-2,5,6,12,16,17-hexaazatricyclo[11.3.1.0^3,7]heptadeca-1(16),3,6,13(17),14-pentaene]",≤ 0.1
7,"Clc1cnc2nc1NCCCOc1nn(C3CCCOC3)cc1N2 (stereo not shown) [E9, 14-Chloro-5-(oxan-3-yl)-8-oxa-2,5,6,12,16,17-hexaazatricyclo[11.3.1.0^3,7]heptadeca-1(16),3,6,13(17),14-pentaene]",≤ 10
8,"Cc1c2c(nn1C1CCOCC1)OCCC(C)(C)Nc1nc(ncc1Cl)N2 [E299, 14-Chloro-4,11,11-trimethyl-5-(oxan-4-yl)-8-oxa-2,5,6,12,16,17-hexaazatricyclo[11.3.1.0^3,7]heptadeca-1(16),3,6,13(17),14-pentaene]",≤ 10
9,"COC1CNc2nc(ncc2Cl)Nc2c(nn(C3CC4CCC(C3)O4)c2C)OC1 (single isomer, unassigned) [E246, 14-Chloro-10-methoxy-4-methyl-5-{8-oxabicyclo[3.2.1]octan-3-yl}-8-oxa-2,5,6,12,16,17-hexaazatricyclo [11.3.1.0^3,7]heptadeca-1(16),3,6,13(17),14-pentaene]",≤ 10
10,"Cc1c2c(nn1C1CC(N3CCC(F)(F)C3)C1)OCCC(C)Nc1nc(ncc1Cl)N2 (single isomer, unassigned) [E316, 14-Chloro-5-[3-(3,3-difluoropyrrolidin-1-yl)cyclobutyl]-4,11-dimethyl-8-oxa-2,5,6,12,16,17-hexaazatricyclo [11.3.1.0^3,7]-heptadeca-1(16),3,6,13(17),14-pentaene]",≤ 0.1
11,"COC1CCCC(n2nc3c(c2C)Nc2ncc(Cl)c(n2)NCCCO3)C1 (single isomer, unassigned) [E181, 14-Chloro-5-(3-methoxycyclohexyl)-4-methyl-8-oxa-2,5,6,12,16,17-hexaazatricyclo[11.3.1.0^3,7]heptadeca-1(16),3,6,13(17),14-pentaene]",100
12,"Cc1c2c(nn1C1CC(N3CCC(F)(F)C3)C1)OCCC(C)Nc1nc(ncc1Cl)N2 (single isomer, unassigned) [E315, 14-Chloro-5-[3-(3,3-difluoropyrrolidin-1-yl)cyclobutyl]-4,11-dimethyl-8-oxa-2,5,6,12,16,17-hexaazatricyclo [11.3.1.0^3,7]-heptadeca-1(16),3,6,13(17),14-pentaene]",≤ 10
13,"Cc1cnc2nc1N[C@H](C)CCOc1nn(C3CCOCC3)c(C)c1N2 [E296, (11R)-14-Methyl-4,11-dimethyl-5-(oxan-4-yl)-8-oxa-2,5,6,12,16,17-hexaazatricyclo[11.3.1.0^3,7]heptadeca-1(16),3,6,13(17),14-pentaene]",≤ 10
14,"Cc1c2c(nn1C1CCOCC1)OCCC(C)Nc1nc(ncc1Br)N2 (single isomer, unassigned) [E29, 14-bromo-4,11-dimethyl-5-(oxan-4-yl)-8-oxa-2,5,6,12,16,17-hexaaza tricyclo[11.3.1.0^3,7]heptadeca-1(16),3,6,13(17),14-pentaene]",≤ 10
15,"COCC1CCOc2nn(C3CCOCC3F)c(C)c2Nc2ncc(Cl)c(n2)N1 (single isomer, unassigned) [E355, 14-Chloro-5-(3-fluorooxan-4-yl)-11-(methoxymethyl)-4-methyl-8-oxa-2,5,6,12,16,17-hexaazatricyclo [11.3. 1.0^3,7]heptadeca-1(16),3,6,13(17),14-pentaene]",≤ 0.1
16,"Cc1c2c(nn1CCN1C[C@H]3C[C@@H]1CO3)OCCC(C)Nc1nc(ncc1Cl)N2 (single isomer, unassigned) [E211]",≤ 10
17,"COCC1CCOc2nn(C3CCOCC3F)c(C)c2Nc2ncc(Cl)c(n2)N1 (single isomer, unassigned) [E356, 14-Chloro-5-(3-fluorooxan-4-yl)-11-(methoxymethyl)-4-methyl-8-oxa-2,5,6,12,16,17-hexaazatricyclo [11.3. 1.0^3,7]heptadeca-1(16),3,6,13(17),14-pentaene]",≤ 10
18,"Cc1c2c(nn1CCN1CCOCC1)OCCC(C)Nc1nc(ncc1Cl)N2 (single isomer, unassigned) [E212, 14-Chloro-4,11-dimethyl-5-[2-(morpholin-4-yl)ethyl]-8-oxa-2,5,6,12,16,17-hexaazatricyclo[11.3.1.0^3,7] heptadeca-1(16),3,6,13(17),14-pentaene]",≤ 10
19,"Clc1cnc2nc1NCCCOc1nn(C3CCOC3)c(Cl)c1N2 (single isomer, unassigned) [E146, 4,14-Dichloro-5-(oxolan-3-yl)-8-oxa-2,5,6,12, 16,17-hexaaza tricyclo[11.3.1.0^3,7]heptadeca-1(16),3,6,13(17), 14-pentaene]",≤ 0.1
20,"COCC1CCOc2nn(C3CCOCC3)c(C)c2Nc2ncc(Cl)c(n2)N1 (single isomer, unassigned) [E36, 14-chloro-11-(methoxymethyl)-4-methyl-5-(oxan-4-yl)-8-oxa-2,5,6, 12,16,17-hexaazatricyclo-[11.3.1.0^3,7]heptadeca-1(16),3,6,13(17),14-pentaene]",≤ 0.1
21,"Cc1c2c(nn1C1CCOCC1)OC(C)CCNc1nc(ncc1Cl)N2 (single isomer, unassigned) [E114, 14-chloro-4,9-dimethyl-5-(oxan-4-yl)-8-oxa-2,5,6,12,16,17-hexaazatricyclo[11.3.1.0^3,7]heptadeca-1(16),3,6,13(17),14-pentaene]",≤ 0.1
22,"Cc1c2c(nn1C1CCC(N3CCC(F)C3)CC1)OCCCNc1nc(ncc1Cl)N2 (single isomer, unassigned) [E155, 14-Chloro-5-[4-(3-fluoropyrrolidin-1-yl)cyclohexyl]-4-methyl-8-oxa-2,5,6,12,16,17-hexaazatricyclo[11.3.1. 0^3,7]heptadeca-1(16),3,6,13(17),14-pentaene]",≤ 0.1
